Results: patent publication US9499492B2, “4-(ortho)-fluorophenyl-5-fluoropyrimidin-2-yl amines containing a sulfoximine group” (BAYER PHARMA AKTIENGESELLSCHAFT, priority 2012, dated 2016)
Where a name gives a salt, the structure may show the parent alone. Read-outs that look alike come from different tables or passages of the source.

Key:
[1] = target: T1, CDK9/CycT1 (Homo sapiens (Human), UniProt P50750); test: CDK9/CycT1 kinase assay (Method 1a); format: biochemical; conditions: for IC50: 10 μM ATP; for Selectivity CDK9/CDK2: derived from Methods 1a. and 2.
T1 sequence (P50750 whole entry): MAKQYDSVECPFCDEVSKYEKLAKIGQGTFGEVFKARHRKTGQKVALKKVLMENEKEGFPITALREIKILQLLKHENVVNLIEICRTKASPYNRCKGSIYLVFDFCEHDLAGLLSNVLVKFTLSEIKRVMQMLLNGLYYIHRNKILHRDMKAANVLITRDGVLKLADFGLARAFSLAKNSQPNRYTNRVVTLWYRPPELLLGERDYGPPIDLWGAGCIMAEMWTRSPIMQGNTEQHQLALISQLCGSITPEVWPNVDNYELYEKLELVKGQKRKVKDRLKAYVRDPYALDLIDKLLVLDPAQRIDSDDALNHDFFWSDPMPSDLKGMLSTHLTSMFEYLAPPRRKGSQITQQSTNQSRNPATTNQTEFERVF
T1 sequence (O60563 whole entry partner): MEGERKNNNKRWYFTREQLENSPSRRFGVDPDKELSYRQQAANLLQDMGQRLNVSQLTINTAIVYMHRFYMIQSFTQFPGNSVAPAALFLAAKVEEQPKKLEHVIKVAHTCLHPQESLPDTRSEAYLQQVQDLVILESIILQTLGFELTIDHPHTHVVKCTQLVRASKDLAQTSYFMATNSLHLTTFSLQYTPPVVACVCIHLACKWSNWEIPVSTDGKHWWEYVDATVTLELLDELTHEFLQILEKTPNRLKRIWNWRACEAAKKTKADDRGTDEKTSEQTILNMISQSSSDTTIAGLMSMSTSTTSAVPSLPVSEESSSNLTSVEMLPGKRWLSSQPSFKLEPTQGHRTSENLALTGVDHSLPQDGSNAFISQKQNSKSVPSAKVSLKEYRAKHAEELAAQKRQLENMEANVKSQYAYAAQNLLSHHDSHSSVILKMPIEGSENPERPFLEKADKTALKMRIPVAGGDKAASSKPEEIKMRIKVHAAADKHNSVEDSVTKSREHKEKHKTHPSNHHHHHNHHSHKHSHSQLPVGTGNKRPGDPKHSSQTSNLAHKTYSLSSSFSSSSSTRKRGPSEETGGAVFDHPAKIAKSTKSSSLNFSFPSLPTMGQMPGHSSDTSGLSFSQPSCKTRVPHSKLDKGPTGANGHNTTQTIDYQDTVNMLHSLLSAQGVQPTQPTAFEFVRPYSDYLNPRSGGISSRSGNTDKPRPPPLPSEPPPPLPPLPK
Source text: 1a. CDK9/CycT1 Kinase Assay:
CDK9/CycT1-inhibitory activity of compounds of the present invention was quantified employing the CDK9/CycT1 TR-FRET assay as described in the following paragraphs:
(§1) Recombinant full-length His-tagged human CDK9 and CycT1, expressed in insect cells and purified by Ni-NTA affinity chromatography, were purchased from Invitrogen (Cat. No PV4131). As substrate for the kinase reaction biotinylated peptide biotin-Ttds-[…] (C-terminus in amid form) was used which can be purchased e.g. form the company JERINI Peptide Technologies (Berlin, Germany).
(§2) For the assay 50 nl of a 100 fold concentrated solution of the test compound in DMSO was pipetted into a black low volume 384 well microtiter plate (Greiner Bio-One, Frickenhausen, Germany), 2 μl of a solution of CDK9/CycT1 in aqueous assay buffer [50 mM Tris/HCl pH 8.0, 10 mM MgCl2, 1.0 mM dithiothreitol, 0.1 mM sodium ortho-vanadate, 0.01% (v/v) Nonidet-P40 (Sigma)] were added and the mixture was incubated for 15 min at 22° C. to allow pre-binding of the test compounds to the enzyme before the start of the kinase reaction. […] The concentration of CDK9/CycT1 was adjusted depending of the activity of the enzyme lot and was chosen appropriate to have the assay in the linear range, typical concentrations were in the range of 1 μg/ml.
(§3) The resulting mixture was incubated 1 h at 22° C. to allow the formation of complex between the phosphorylated biotinylated peptide and the detection reagents. Subsequently the amount of phosphorylated substrate was evaluated by measurement of the resonance energy transfer from the Eu-chelate to the streptavidine-XL. Therefore, the fluorescence emissions at 620 nm and 665 nm after excitation at 350 nm was measured in a HTRF reader, e.g. a Rubystar (BMG Labtechnologies, Offenburg, Germany) or a Viewlux (Perkin-Elmer). The ratio of the emissions at 665 nm and at 622 nm was taken as the measure for the amount of phosphorylated substrate.

[2] = target: T1, CDK9/CycT1; test: CDK9/CycT1 high ATP kinase assay (Method 1b); format: biochemical; conditions: 2 mM ATP
Method: 1b. CDK9/CycT1 High ATP Kinase Assay
CDK9/CycT1-inhibitory activity of compounds of the present invention at a high ATP concentration after preincubation of enzyme and test compounds was quantified employing the CDK9/CycT1 TR-FRET assay as described in the following paragraphs.
as §1, with “were purchase” for “were purchased”, “JERINI peptide technologies” for “JERINI Peptide Technologies”
as §2, with “of 0.5” for “of 1”
as §3

[3] = target: CDK2/CycE (Homo sapiens (Human), UniProt P24941); test: CDK2/CycE kinase assay (Method 2); format: biochemical; conditions: 10 μM ATP
Source text: 2. CDK2/CycE Kinase Assay:
CDK2/CycE-inhibitory activity of compounds of the present invention was quantified employing the CDK2/CycE TR-FRET assay as described in the following paragraphs:
Recombinant fusion proteins of GST and human CDK2 and of GST and human CycE, expressed in insect cells (Sf9) and purified by Glutathion-Sepharose affinity chromatography, were purchased from ProQinase GmbH (Freiburg, Germany). As substrate for the kinase reaction biotinylated peptide biotin-Ttds-[…] (C-terminus in amid form) was used which can be purchased e.g. form the company JERINI Peptide Technologies (Berlin, Germany).
as §2, with “CDK2/CycE” for “CDK9/CycT1”, “130 ng/ml.” for “1 μg/ml.”
as §3, with “TR-FRET” for “HTRF”

[4] = system: A2780, human ovarian carcinoma cells; test: Proliferation assay, A2780 (Method 3); format: cell-based; conditions: A2780, 4 days, crystal violet, read-out: Inhibition of A2780 cell proliferation IC50
Method: (§4) After 24 hours, the cells of one plate (zero-point plate) were stained with crystal violet (see below), while the medium of the other plates was replaced by fresh culture medium (200 μl), to which the test substances were added in various concentrations (0 μM, as well as in the range of 0.001-10 μM; the final concentration of the solvent dimethyl sulfoxide was 0.5%). The cells were incubated for 4 days in the presence of test substances. Cell proliferation was determined by staining the cells with crystal violet: the cells were fixed by adding 20 μl/measuring point of an 11% glutaric aldehyde solution for 15 minutes at room temperature. After three washing cycles of the fixed cells with water, the plates were dried at room temperature. The cells were stained by adding 100 μl/measuring point of a 0.1% crystal violet solution (pH 3.0). After three washing cycles of the stained cells with water, the plates were dried at room temperature. The dye was dissolved by adding 100 μl/measuring point of a 10% acetic acid solution. The extinction was determined by photometry at a wavelength of 595 nm. The change of cell number, in percent, was calculated by normalization of the measured values to the extinction values of the zero-point plate (=0%) and the extinction of the untreated (0 μm) cells (=100%).

[5] = In vitro metabolic stability in rat hepatocytes (Method 5); format: in vitro ADME, Han Wistar rat; conditions: 1 μM test compound
Method: 5. Investigation of In Vitro Metabolic Stability in Rat Hepatocytes
Hepatocytes from Han Wistar rats were isolated via a 2-step perfusion method. After perfusion, the liver was carefully removed from the rat: the liver capsule was opened and the hepatocytes were gently shaken out into a Petri dish with ice-cold Williams medium E (purchased from Sigma Aldrich Life Science, St Louis, Mo.). The resulting cell suspension was filtered through sterile gaze in 50 ml falcon tubes and centrifuged at 50×g for 3 min at room temperature. The cell pellet was resuspended in 30 ml WME and centrifuged through a Percoll® gradient for 2 times at 100×g. The hepatocytes were washed again with Williams' medium E (WMA) and resuspended in medium containing 5% Fetal calf serum (FCS, purchased from Invitrogen, Auckland, NZ). Cell viability was determined by trypan blue exclusion.
For the metabolic stability assay liver cells were distributed in WME containing 5% FCS to glass vials at a density of 1.0×10^6 vital cells/ml. The test compound was added to a final concentration of 1 μM. During incubation, the hepatocyte suspensions were continuously shaken and aliquots were taken at 2, 8, 16, 30, 45 and 90 min, to which equal volumes of cold acetonitrile were immediately added. Samples were frozen at −20° C. over night, after subsequently centrifuged for 15 minutes at 3000 rpm and the supernatant was analyzed with an Agilent 1200 HPLC-system with LCMS/MS detection.
The half-life of a test compound was determined from the concentration-time plot. From the half-life the intrinsic clearances were calculated. Together with the additional parameters liver blood flow, amount of liver cells in vivo and in vitro.

[6] = system: HeLa, human cervical tumour cells; test: Proliferation assay, HeLa (Method 3); format: cell-based; conditions: 4 days, crystal violet, read-out: Inhibition of HeLa cell proliferation IC50
Method: as §4

SMILES | IC50 [1] | Selectivity CDK9/CDK2 [1] | IC50 [2] | IC50 [3] | IC50 ([4]; Homo sapiens, A2780, 96 h) | maximal calculated oral bioavailability (Fmax) based on stability data in rat Hepatocytes [5] | IC50 ([6]; Homo sapiens, 96 h) | IC50 [4] | IC50 [6]
CS(=N)(=O)Cc1cccc(Nc2ncc(F)c(-c3ccc(F)cc3F)n2)c1 (racemic) [Example 9, (rac)-4-(2,4-Difluorophenyl)-5-fluoro-N-{3-[(S-methylsulfonimidoyl)methyl]phenyl}pyrimidin-2-amine] | 42 nM | 25 | 2710 nM | 1100 nM | – | – | – | – | –
CS(=O)(Cc1cc(Cl)cc(Nc2ncc(F)c(-c3ccc(F)cc3F)n2)c1)=NC#N (racemic) [Example 14, (rac)-[(3-Chloro-5-{[4-(2,4-difluorophenyl)-5-fluoropyrimidin-2-yl]amino}benzyl)(methyl)oxido-λ^6-sulfanylidene]cyanamide] | – | – | – | 530 nM | 540 nM | 75% | 1020 nM | – | –
Cc1cc(CS(C)(=N)=O)cc(Nc2ncc(F)c(-c3ccc(F)cc3F)n2)c1 (racemic) [Example 17, (rac)-4-(2,4-Difluorophenyl)-5-fluoro-N-{3-methyl-5-[(S-methylsulfonimidoyl)methyl]phenyl}pyrimidin-2-amine] | 26 nM | 19 | 470 nM | 480 nM | 180 nM | – | 1360 nM | – | –
COCCS(=O)(Cc1cc(Nc2ncc(F)c(-c3ccc(F)cc3F)n2)cc(C(F)(F)F)c1)=NC#N (racemic) [Example 22, (rac)-{[3-{[4-(2,4-Difluorophenyl)-5-fluoropyrimidin-2-yl]amino}-5-(trifluoromethyl)benzyl](2-methoxyethyl)oxido-λ^6-sulfanylidene}cyanamide] | 7 nM | 183 | 19 nM | 1200 nM | – | – | 900 nM | – | –

Continued, values first:

IC50 [1] | Selectivity CDK9/CDK2 [1] | IC50 [2] | IC50 [3] | IC50 ([4]; Homo sapiens, A2780, 96 h) | maximal calculated oral bioavailability (Fmax) based on stability data in rat Hepatocytes [5] | IC50 ([6]; Homo sapiens, 96 h) | IC50 [4] | IC50 [6] | SMILES
85 nM | 38 | 417 nM | 3200 nM | – | – | 2210 nM | – | – | N=S(=O)(CCN)Cc1cc(Nc2ncc(F)c(-c3ccc(F)cc3F)n2)cc(C(F)(F)F)c1 (racemic) [Example 25, (rac)-N-[3-{[S-(2-Aminoethyl)sulfonimidoyl]methyl}-5-(trifluoromethyl)phenyl]-4-(2,4-difluorophenyl)-5-fluoropyrimidin-2-amine trifluoroacetate]
10 nM | 66 | 199 nM | 670 nM | – | 82% | – | 320 nM | 910 nM | CS(=O)(Cc1cc(Nc2ncc(F)c(-c3ccc(F)cc3F)n2)cc(C(F)(F)F)c1)=NC(N)=O (single isomer, unassigned) [Example 24, 1-{[3-{[4-(2,4-Difluorophenyl)-5-fluoropyrimidin-2-yl]amino}-5-(trifluoromethyl)benzyl](methyl)oxido-λ^6-sulfanylidene}urea]
– | – | 276 nM | 1100 nM | – | – | – | – | – | N=S(=O)(CCN)Cc1cc(Nc2ncc(F)c(-c3ccc(F)cc3F)n2)cc(C(F)(F)F)c1 (single isomer, unassigned) [Example 27, N-[3-{[S-(2-Aminoethyl)sulfonimidoyl]methyl}-5-(trifluoromethyl)phenyl]-4-(2,4-difluorophenyl)-5-fluoropyrimidin-2-amine]
36 nM | 23 | 6310 nM | 830 nM | – | – | 1080 nM | – | – | Cc1cc(CS(C)(=N)=O)cc(Nc2ncc(F)c(-c3ccc(F)cc3F)n2)c1 (single isomer, unassigned) [Example 37, 4-(2,4-Difluorophenyl)-5-fluoro-N-{3-methyl-5-[(S-methylsulfonimidoyl)methyl]-phenyl}pyrimidin-2-amine]
19 nM | 38 | 6490 nM | 720 nM | – | – | – | – | 649 nM | Cc1cc(CS(C)(=N)=O)cc(Nc2ncc(F)c(-c3ccc(F)cc3F)n2)c1 (single isomer, unassigned) [Example 38, 4-(2,4-Difluorophenyl)-5-fluoro-N-{3-methyl-5-[(S-methylsulfonimidoyl)methyl]-phenyl}pyrimidin-2-amine]
